We go through one molecule from patent publication US20200254211A1, “STRESS RELIEVING DEVICE FOR VEHICLES” (DENSO CORPORATION, priority 2015, published 2020).

In one test the test system is parasympathetic nerves. The experiment in a line: parasympathetic nerve state with respect to cedrol concentration (FIG. 4). Type of test: in vivo, human. As to the method:
Then, once cedrol concentration exceeds 300 μg/m^3, due to excessive relaxation, sleepiness is promoted.

Test [1] has as its system α-II waves and θ waves in the brain. The experiment in a line: human brain waves recorded in an environment where cedrol is volatilized (FIG. 3). Type of test: in vivo. As to the method:
Further, from the start of volatilization of cedrol and until cedrol concentration reaches 300 μg/m^3, the activity voltage of α-II waves is greater than that of θ waves, and it is understood that this is suitable for relaxing a person. Further, once cedrol concentration exceeds 300 μg/m^3, the activity voltage of […] is greater than that of α-II waves, and it is understood that this is suitable for promoting sleepiness in a person.

The subject of the next test is humans. To be noted: general statement; cited from earlier work.
The subject of test [2] is parasympathetic nerve state (relaxation state) of test subjects. The experiment in a line: stress substitution experiment (FIG. 6). Type of test: in vivo, human. As to conditions: average of six test subjects, cedrol in diethylene glycol monobutyl ether. The text has this: In this experiment, instead of actual driving, a stress substitution experiment is applied to confirm effects. The stress substitution experiment may be, for example, repetitively performing simple calculations, handling heavy objects with difficult posture, etc.
In the above stress substitution experiment, with respect to an initial state, the parasympathetic nerve state (relaxation state) of the test subjects decreases when stressed. […] In other words, it is possible for a mixture solvent of cedrol is change an irritated state to a relaxed state.

In the case of `C[C@@H]1CC[C@H]2C(C)(C)[C@H]3C[C@@]12CC[C@@]3(C)O` [cedrol], the “lower limit of cedrol for exhibiting a relaxation effect” value with parasympathetic nerves (volatilization amount in vehicle cabin) is 0.5 μg/m^3. Moreover, in the test with parasympathetic nerves (volatilized cedrol in air), the “cedrol concentration at which sleepiness is promoted due to excessive relaxation” value is reported as “exceeds 300 μg/m^3” and the “parasympathetic nerve state with increasing cedrol concentration” value is listed as “parasympathetic nerves become significant”. Also, the “cedrol concentration at which activity voltage of α-II waves is greater than that of θ waves (suitable for relaxing)” value in test [1] (from the start of volatilization) is listed as not above 300 μg/m^3. For the same molecule, the “activity voltages of α-II waves (relaxation) and θ waves (falling asleep)” value in test [1] (human brain waves, volatilized cedrol, with rising concentration) is given as “both increase as the concentration of cedrol increases”. In addition, the “cedrol concentration at which activity voltage of θ waves is greater than that of α-II waves (promoting sleepiness)” value in test [1] (volatilized cedrol in air) is listed as “exceeds 300 μg/m^3”. Further, the “physiological effects in humans” value in the test with humans was “lowering heat rate, respiratory rate, blood pressure, etc. in humans, and also increasing α-II waves in the brain”. Moreover, in test [2], the “parasympathetic nerve state (relaxation state) after release of mixture solvent vapor to stressed test subjects” value was “increases to above the initial state”.
